What was measured:
[1] = tested on: Chinese sprangletop; test: Test Example 3: herbicidal effect by foliage application, Wagner pot (Table 18, symbol D); type: in vivo, chinese sprangletop (Leptochloa chinensis); settings: 320 g/ha
In short: (§1)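 Plants were sown in alluvial soil held under 0.1–0.5 cm standing water and grown 14 days in a greenhouse at 25–30 °C. An emulsifiable formulation, water-diluted to the set dose, was then sprayed onto the foliage, and effects were scored three weeks later using previously defined criteria.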

[2] = tested on: Italian ryegrass; test: Test Example 4: herbicidal effect by soil treatment (Table 19, symbol K); type: in vivo, Italian ryegrass (Lolium multiflorum); settings: amount of applied herbicide 320 g/ha
In short: (§2)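 Emulsion of test compound, water-diluted to predetermined amount, sprayed on soil after sowing (seed depth ~1.5 cm, sterilized diluvial soil). Greenhouse, 25–30° C. Effect graded at three weeks post-spray.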

[3] = tested on: barnyard grass; test: Test Example 5: herbicidal effect by foliage application, plastic box (Table 20, symbol H); type: in vivo, barnyard grass (Echinochloa crus-galli); settings: foliage application, 320 g/ha, three weeks after application
In short: (§3)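 Post-emergence foliar test in sterilized diluvial soil. Compound applied as water-diluted emulsion at a predetermined rate to 14-day-old plants; evaluation at three weeks.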

[4] = tested on: redroot pigweed; test: Test Example 4: herbicidal effect by soil treatment (Table 19, symbol N); type: in vivo, redroot pigweed (Amaranthus retroflexus); settings: amount of applied herbicide 320 g/ha
In short: as §2

[5] = tested on: windgrass; test: Test Example 5: herbicidal effect by foliage application, plastic box (Table 20, symbol L); type: in vivo, windgrass (Apera spica-venti); settings: foliage application, 320 g/ha, three weeks after application
In short: as §3

[6] = tested on: wild oat; test: Test Example 4: herbicidal effect by soil treatment (Table 19, symbol I); type: in vivo, wild oat (Avena fatua); settings: amount of applied herbicide 320 g/ha
In short: as §2

[7] = tested on: lambsquarters; test: Test Example 5: herbicidal effect by foliage application, plastic box (Table 20, symbol O); type: in vivo, lambsquarters (Chenopodium album); settings: foliage application, 320 g/ha, three weeks after application
In short: as §3

[8] = tested on: blackgrass; test: Test Example 4: herbicidal effect by soil treatment (Table 19, symbol J); type: in vivo, blackgrass (Alopecurus myosuroides); settings: amount of applied herbicide 320 g/ha
In short: as §2

[9] = tested on: persian speedwell; test: Test Example 5: herbicidal effect by foliage application, plastic box (Table 20, symbol R); type: in vivo, Persian speedwell (Veronica persica); settings: foliage application, 320 g/ha, three weeks after application
In short: as §3

[10] = tested on: oval-leafed pondweed; test: Test Example 1: herbicidal activity, application before weed generation under submerged conditions (Table 16, symbol C); type: in vivo, oval-leafed pondweed (Monochoria vaginalis); settings: amount of applied herbicide 320 g/ha
In short: (§4)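 Alluvial soil was flooded to 4 cm depth, weed seeds were sown mixed and 2.5-leaf rice seedlings were transplanted. On sowing day, the compound's emulsion, diluted in water to a set dose, was applied to the water surface. Plants grew at 25–30 °C and were scored 0–5 after three weeks.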

[11] = tested on: wild oat; test: Test Example 5: herbicidal effect by foliage application, plastic box (Table 20, symbol I); type: in vivo, wild oat (Avena fatua); settings: foliage application, 320 g/ha, three weeks after application
In short: as §3

[12] = tested on: barnyard grass; test: Test Example 3: herbicidal effect by foliage application, Wagner pot (Table 18, symbol H); type: in vivo, barnyard grass (Echinochloa crus-galli); settings: 320 g/ha
In short: as §1

[13] = tested on: blackgrass; test: Test Example 5: herbicidal effect by foliage application, plastic box (Table 20, symbol J); type: in vivo, blackgrass (Alopecurus myosuroides); settings: foliage application, 320 g/ha, three weeks after application
In short: as §3

[14] = tested on: Japanese bulrush; test: Test Example 1: herbicidal activity, application before weed generation under submerged conditions (Table 16, symbol B); type: in vivo, Japanese bulrush (Schoenoplectus juncoides); settings: amount of applied herbicide 320 g/ha
In short: as §4

[15] = tested on: southern crabgrass; test: Test Example 5: herbicidal effect by foliage application, plastic box (Table 20, symbol F); type: in vivo, southern crabgrass (Digitaria ciliaris); settings: foliage application, 320 g/ha, three weeks after application
In short: as §3

[16] = tested on: southern crabgrass; test: Test Example 4: herbicidal effect by soil treatment (Table 19, symbol F); type: in vivo, southern crabgrass (Digitaria ciliaris); settings: amount of applied herbicide 320 g/ha
In short: as §2

Compound | herbicidal effect on Chinese sprangletop (D) [1] | K: Italian ryegrass, herbicidal effect grade [2] | H: barnyard grass, herbicidal effect grade [3] | N: redroot pigweed, herbicidal effect grade [4] | L: windgrass, herbicidal effect grade [5] | I: wild oat, herbicidal effect grade [6] | O: lambsquarters, herbicidal effect grade [7] | J: blackgrass, herbicidal effect grade [8] | R: persian speedwell, herbicidal effect grade [9] | Herbicidal effect, C: oval-leafed pondweed [10] | I: wild oat, herbicidal effect grade [11] | herbicidal effect on barnyard grass (H) [12] | J: blackgrass, herbicidal effect grade [13] | Herbicidal effect, B: Japanese bulrush [14] | F: southern crabgrass, herbicidal effect grade [15] | F: southern crabgrass, herbicidal effect grade [16] | also measured
COc1ccccc1-c1sc2cc(OCC(F)F)ccc2c1-c1c(O)c(C)nn(C)c1=O [3-114] | 4 (Herbicidal rate of 70% or more and less than 90%) | 5 (Herbicidal rate of 90% or more (almost completely withered)) | 5 (Herbicidal rate of 90% or more (almost completely withered)) | 5 (Herbicidal rate of 90% or more (almost completely withered)) | 5 (Herbicidal rate of 90% or more (almost completely withered)) | 0 (Herbicidal rate of 5% or less (almost no effect)) | 5 (Herbicidal rate of 90% or more (almost completely withered)) | 5 (Herbicidal rate of 90% or more (almost completely withered)) | 5 (Herbicidal rate of 90% or more (almost completely withered)) | 5 (Herbicidal rate of 90% or more (almost completely withered)) | 5 (Herbicidal rate of 90% or more (almost completely withered)) | 5 (Herbicidal rate of 90% or more (almost completely withered)) | 5 (Herbicidal rate of 90% or more (almost completely withered)) | 5 (Herbicidal rate of 90% or more (almost completely withered)) | 5 (Herbicidal rate of 90% or more (almost completely withered)) | 4 (Herbicidal rate of 70% or more and less than 90%) | 
CCOc1ccccc1-c1sc2cc(OCCOC)ccc2c1-c1c(O)c(C)nn(C)c1=O [3-123] | 5 (Herbicidal rate of 90% or more (almost completely withered)) | 5 (Herbicidal rate of 90% or more (almost completely withered)) | 5 (Herbicidal rate of 90% or more (almost completely withered)) | 5 (Herbicidal rate of 90% or more (almost completely withered)) | 5 (Herbicidal rate of 90% or more (almost completely withered)) | 4 (Herbicidal rate of 70% or more and less than 90%) | 5 (Herbicidal rate of 90% or more (almost completely withered)) | 4 (Herbicidal rate of 70% or more and less than 90%) | 5 (Herbicidal rate of 90% or more (almost completely withered)) | 5 (Herbicidal rate of 90% or more (almost completely withered)) | 5 (Herbicidal rate of 90% or more (almost completely withered)) | 5 (Herbicidal rate of 90% or more (almost completely withered)) | 5 (Herbicidal rate of 90% or more (almost completely withered)) | 5 (Herbicidal rate of 90% or more (almost completely withered)) | 5 (Herbicidal rate of 90% or more (almost completely withered)) | 5 (Herbicidal rate of 90% or more (almost completely withered)) | 
COc1ccccc1-c1sc2cc(OCCSC)ccc2c1-c1c(O)c(C)nn(C)c1=O [3-125] | 3 (Herbicidal rate of 40% or more and less than 70%) | 5 (Herbicidal rate of 90% or more (almost completely withered)) | 3 (Herbicidal rate of 40% or more and less than 70%) | 5 (Herbicidal rate of 90% or more (almost completely withered)) | 5 (Herbicidal rate of 90% or more (almost completely withered)) | 0 (Herbicidal rate of 5% or less (almost no effect)) | 4 (Herbicidal rate of 70% or more and less than 90%) | 5 (Herbicidal rate of 90% or more (almost completely withered)) | 5 (Herbicidal rate of 90% or more (almost completely withered)) | 1 (Herbicidal rate of 5% or more and less than 20%) | 5 (Herbicidal rate of 90% or more (almost completely withered)) | 5 (Herbicidal rate of 90% or more (almost completely withered)) | 5 (Herbicidal rate of 90% or more (almost completely withered)) | 3 (Herbicidal rate of 40% or more and less than 70%) | 5 (Herbicidal rate of 90% or more (almost completely withered)) | 3 (Herbicidal rate of 40% or more and less than 70%) | 
COc1ccccc1-c1sc2cc(OCC3CCCO3)ccc2c1-c1c(O)c(C)nn(C)c1=O (stereo not shown) [3-133] | 3 (Herbicidal rate of 40% or more and less than 70%) |  | 3 (Herbicidal rate of 40% or more and less than 70%) |  | 5 (Herbicidal rate of 90% or more (almost completely withered)) |  | 5 (Herbicidal rate of 90% or more (almost completely withered)) |  | 5 (Herbicidal rate of 90% or more (almost completely withered)) | 4 (Herbicidal rate of 70% or more and less than 90%) | 4 (Herbicidal rate of 70% or more and less than 90%) | 3 (Herbicidal rate of 40% or more and less than 70%) | 5 (Herbicidal rate of 90% or more (almost completely withered)) | 3 (Herbicidal rate of 40% or more and less than 70%) | 4 (Herbicidal rate of 70% or more and less than 90%) |  | Herbicidal effect by soil treatment, K: Italian ryegrass [2]: 5 (Herbicidal rate of 90% or more (almost completely withered)); Herbicidal effect by soil treatment, N: redroot pigweed [4]: 5 (Herbicidal rate of 90% or more (almost completely withered)); Herbicidal effect by soil treatment, I: wild oat [6]: 1 (Herbicidal rate of 5% or more and less than 20%); Herbicidal effect by soil treatment, J: blackgrass [8]: 3 (Herbicidal rate of 40% or more and less than 70%); Herbicidal effect by soil treatment, F: southern crabgrass [16]: 2 (Herbicidal rate of 20% or more and less than 40%)

Source: patent US20230085307A1, “PYRIDAZINONE COMPOUND AND HERBICIDE” (NISSAN CHEMICAL CORPORATION, priority 2019, published 2023)
